Measurements: US9340554B2, “IRAK inhibitors and uses thereof” (Nimbus Iris, Inc., priority 2011, dated 2016)

Target: T1, IRAK4 (Homo sapiens, UniProt Q9NWZ3)
T1 construct: purchased CARNA Bioscience 09-145
T1 sequence (Q9NWZ3 1-460): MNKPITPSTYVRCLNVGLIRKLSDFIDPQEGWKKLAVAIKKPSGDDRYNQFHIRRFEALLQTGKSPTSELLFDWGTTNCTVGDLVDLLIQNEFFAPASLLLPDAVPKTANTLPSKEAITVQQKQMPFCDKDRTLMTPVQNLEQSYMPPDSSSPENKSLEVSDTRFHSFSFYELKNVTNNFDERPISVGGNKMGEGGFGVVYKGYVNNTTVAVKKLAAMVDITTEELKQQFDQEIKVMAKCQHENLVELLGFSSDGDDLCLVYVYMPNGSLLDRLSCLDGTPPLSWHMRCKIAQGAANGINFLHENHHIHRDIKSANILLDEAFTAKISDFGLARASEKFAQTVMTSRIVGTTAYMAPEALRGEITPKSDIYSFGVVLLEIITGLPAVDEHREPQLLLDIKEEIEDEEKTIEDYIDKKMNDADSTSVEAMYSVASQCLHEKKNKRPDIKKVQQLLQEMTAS
Assay: IRAK-4 activity inhibition assay (Caliper, Peptide 8, 37 μM ATP)
Format: biochemical
Details: 3.5 nM IRAK4, 1.5 μM Peptide 8, 37 μM ATP, 28° C. 40 minutes; read-out: IRAK-4 activity inhibition IC50
Method: A 1× kinase base buffer was prepared from 50 mM HEPES, pH 7.5 and 0.0015% Brij-35. A stop buffer was prepared from 100 mM HEPES, pH 7.5, 0.015% Brij-35, 0.2% Coating Reagent #3, and 50 mM EDTA.
Test compound was diluted to 50× of the final desired highest inhibitor concentration in reaction by 100% DMSO. 100 ul of this compound dilution was transferred to a well in a 96-well plate.
Test compound was serially diluted by transferring 30 μl to 60 μl of 100% DMSO in the next well and so forth for a total of 10 concentrations. 100 μl of 100% DMSO was added to two empty wells for no compound control and no enzyme control in the same 96-well plate.
A new 96-well plate was marked as intermediate plate. 5 μl of compound serial dilution was transferred from source plate to the corresponding wells of the intermediate plate. 45 μl of 1× kinase base buffer (KB buffer) was added to each well of the intermediate plate. The intermediate plate was placed for 10 min on a shaker.
5 μl of each well was transferred from the 96-well intermediate plate to a 384-well plate in duplicates. […] A2 of the 96-well plate is transferred to A3 and A4 of the 384-well plate, and so on.
IRAK4 and DTT in 1× kinase base buffer was added.
Assay plate already contained 5 μl of compound in 10% DMSO. Added 10 μl of 2.5× enzyme solution to each well of the 384-well assay plate, except no enzyme control wells. […] Added 10 μl of 1× kinase base buffer to no enzyme control wells in the assay plate. Incubated at room temperature for 10 min.
Added 10 μl of 2.5× peptide solution to each well of the 384-well assay plate. […] Incubated at 28° C. for 40 minutes. Added 25 μl of stop buffer to stop reaction. Collected data on Caliper.
Copied conversion % data from Caliper program. Converted conversion % values to percent inhibition values. Percent inhibition=(max−conversion %)/(max−min)*100, where “max” means the conversion % of DMSO control and “min” means the conversion % of no enzyme control.
The compound numbers correspond to the compound numbers in Table 1. […] “NA” stands for “not assayed.”

IC50 [µM] | SMILES
5 to 20 | CNC1CCCC(Oc2ncnc3sc4c(c23)CCC4)CC1 (centres unmarked) [Compound I-113, N-methyl-4-[7-thia-9,11-diazatricyclo[6.4.0.0^[2,6]]dodeca-1(12),2(6),8,10-tetraen-12-yloxy]cycloheptan-1-amine]
< 5 | CN(CC(=O)Nc1ccccc1)[C@H]1CC[C@H](Nc2ncnc3sc4c(c23)CCC4)CC1 [Compound I-114, 2-[methyl[4-([7-thia-9,11-diazatricyclo[6.4.0.0^[2,6]]dodeca-1(8),2(6),9,11-tetraen-12-yl]amino)cyclohexyl]amino]-N-phenylacetamide]
< 5 | c1ccc(CCN[C@H]2CC[C@H](Nc3ncnc4sc5c(c34)CCC5)CC2)cc1 [Compound I-115, 1-N-(2-phenylethyl)-4-N-[7-thia-9,11-diazatricyclo[6.4.0.0^[2,6]]dodeca-1(12),2(6),8,10-tetraen-12-yl]cyclohexane-1,4-diamine]
< 5 | CN(CCCc1ccccc1)[C@H]1CC[C@H](Oc2ncnc3sc4c(c23)CCC4)CC1 [Compound I-116, N-methyl-N-(3-phenylpropyl)-4-[7-thia-9,11-diazatricyclo[6.4.0.0^[2,6]]dodeca-1(8),2(6),9,11-tetraen-12-yloxy]cyclohexan-1-amine]
< 5 | CCN(Cc1ccccc1)[C@H]1CC[C@H](Oc2ncnc3sc4c(c23)CCC4)CC1 [Compound I-117, (1r,4r)-N-benzyl-4-((6,7-dihydro-5H-cyclopenta[4,5]thieno[2,3-d]pyrimidin-4-yl)oxy)-N-ethylcyclohexanamine]
< 5 | CN(CCCc1ccccc1)[C@H]1CC[C@H](Nc2ncnc3sc4c(c23)CCC4)CC1 [Compound I-118]
< 5 | c1ccc(CCCN[C@H]2CC[C@H](Nc3ncnc4sc5c(c34)CCC5)CC2)cc1 [Compound I-119, (1r,4r)-N1-(6,7-dihydro-5H-cyclopenta[4,5]thieno[2,3-d]pyrimidin-4-yl)-N4-(3-phenylpropyl)cyclohexane-1,4-diamine]
< 5 | CCN(Cc1ccccc1)[C@H]1CC[C@H](Nc2ncnc3sc4c(c23)CCC4)CC1 [Compound I-120, 1-N-benzyl-1-N-ethyl-4-N-[7-thia-9,11-diazatricyclo[6.4.0.0[2,6]]dodeca-1(8),2(6),9,11-tetraen-12-yl]cyclohexane-1,4-diamine]
< 5 | CN(CCc1ccccc1)[C@H]1CC[C@H](Oc2ncnc3sc4c(c23)CCC4)CC1 [Compound I-121, N-methyl-N-(2-phenylethyl)-4-[7-thia-9,11-diazatricyclo[6.4.0.0[2,6]]dodeca-1(8),2(6),9,11-tetraen-12-yloxy]cyclohexan-1-amine]
< 5 | CN(CC(N)=O)[C@H]1CC[C@H](Nc2ncnc3sc4c(c23)CCC4)CC1 [Compound I-122, 2-(((1r,4r)-4-((6,7-dihydro-5H-cyclopenta[4,5]thieno[2,3-d]pyrimidin-4-yl)amino)cyclohexyl)(methyl)amino)acetamide]
< 5 | CN(CC(=O)NCc1ccccc1)[C@H]1CC[C@H](Nc2ncnc3sc4c(c23)CCC4)CC1 [Compound I-123, N-benzyl-2-(((1r,4r)-4-((6,7-dihydro-5H-cyclopenta[4,5]thieno[2,3-d]pyrimidin-4-yl)amino)cyclohexyl)(methyl)amino)acetamide]
< 5 | CC(C)NC(=O)CN(C)[C@H]1CC[C@H](Nc2ncnc3sc4c(c23)CCC4)CC1 [Compound I-125, 2-(((1r,4r)-4-((6,7-dihydro-5H-cyclopenta[4,5]thieno[2,3-d]pyrimidin-4-yl)amino)cyclohexyl)(methyl)amino)-N-isopropylacetamide]
< 5 | CN(CC(=O)Nc1cccnc1)[C@H]1CC[C@H](Nc2ncnc3sc4c(c23)CCC4)CC1 [Compound I-126, 2-(((1r,4r)-4-((6,7-dihydro-5H-cyclopenta[4,5]thieno[2,3-d]pyrimidin-4-yl)amino)cyclohexyl)(methyl)amino)-N-(pyridin-3-yl)acetamide]
< 5 | CC(C)CN(C)[C@H]1CC[C@H](Nc2ncnc3sc4c(c23)CCC4)CC1 [Compound I-127, 1-N-methyl-1-N-(2-methylpropyl)-4-N-[7-thia-9,11-diazatricyclo[6.4.0.0[2,6]]dodeca-1(8),2(6),9,11-tetraen-12-yl]cyclohexane-1,4-diamine]
20 to 50 | C[N+](C)([O-])[C@H]1CC[C@H](Nc2ncnc3sc4c(c23)CCC4)CC1 [Compound I-128, N-[4-(dimethylnitroso)cyclohexyl]-7-thia-9,11-diazatricyclo[6.4.0.0[2,6]]dodeca-1(8),2(6),9,11-tetraen-12-amine]
< 5 | CN(CC(=O)N1CCCCC1)[C@H]1CC[C@H](Nc2ncnc3sc4c(c23)CCC4)CC1 [Compound I-129, 2-[methyl[4-([7-thia-9,11-diazatricyclo[6.4.0.0[2,6]]dodeca-1(12),2(6),8,10-tetraen-12-yl]amino)cyclohexyl]amino]-1-(piperidin-1-yl)ethan-1-one]

The remaining lines, values behind:

SMILES | IC50 [µM]
CN(C(=O)Cc1ccccn1)[C@H]1CC[C@H](Nc2ncnc3sc4c(c23)CCC4)CC1 [Compound I-103, N-methyl-2-(pyridin-2-yl)-N-[4-([7-thia-9,11-diazatricyclo[6.4.0.0^[2,6]]dodeca-1(8),2(6),9,11-tetraen-12-yl]amino)cyclohexyl]acetamide] | 20 to 50
CN(Cc1ncccc1F)[C@H]1CC[C@H](Nc2ncnc3sc4c(c23)CCC4)CC1 [Compound I-104, 1-N-[(3-fluoropyridin-2-yl)methyl]-1-N-methyl-4-N-[7-thia-9,11-diazatricyclo[6.4.0.0^[2,6]]dodeca-1(12),2(6),8,10-tetraen-12-yl]cyclohexane-1,4-diamine] | < 5
CN(Cc1cnccn1)[C@H]1CC[C@H](Nc2ncnc3sc4c(c23)CCC4)CC1 [Compound I-105] | < 5
CN(CCc1ccccn1)[C@H]1CC[C@H](Nc2ncnc3sc4c(c23)CCC4)CC1 [Compound I-106, 1-N-methyl-1-N-[2-(pyridin-2-yl)ethyl]-4-N-[7-thia-9,11-diazatricyclo[6.4.0.0^[2,6]]dodeca-1(8),2(6),9,11-tetraen-12-yl]cyclohexane-1,4-diamine] | < 5
CN(CCc1cccc(Cl)c1)[C@H]1CC[C@H](Nc2ncnc3sc4c(c23)CCC4)CC1 [Compound I-107, 1-N-[2-(3-chlorophenyl)ethyl]-1-N-methyl-4-N-[7-thia-9,11-diazatricyclo[6.4.0.0^[2,6]]dodeca-1(8),2(6),9,11-tetraen-12-yl]cyclohexane-1,4-diamine] | < 5
CN(CCC(=O)O)[C@H]1CC[C@H](Nc2ncnc3sc4c(c23)CCC4)CC1 [Compound I-108, 3-[methyl[4-([7-thia-9,11-diazatricyclo[6.4.0.0^[2,6]]dodeca-1(8),2(6),9,11-tetraen-12-yl]amino)cyclohexyl]amino]propanoic acid] | < 5
CN(CCC(N)=O)[C@H]1CC[C@H](Nc2ncnc3sc4c(c23)CCC4)CC1 [Compound I-109, 3-[methyl[4-([7-thia-9,11-diazatricyclo[6.4.0.0^[2,6]]dodeca-1(8),2(6),9,11-tetraen-12-yl]amino)cyclohexyl]amino]propanamide] | < 5
CN(Cc1c[nH]c2ccccc12)[C@H]1CC[C@H](Nc2ncnc3sc4c(c23)CCC4)CC1 [Compound I-110] | < 5
CN(Cc1ccncc1F)[C@H]1CC[C@H](Nc2ncnc3sc4c(c23)CCC4)CC1 [Compound I-111, 1-N-[(3-fluoropyridin-4-yl)methyl]-1-N-methyl-4-N-[7-thia-9,11-diazatricyclo[6.4.0.0^[2,6]]dodeca-1(12),2(6),8,10-tetraen-12-yl]cyclohexane-1,4-diamine] | < 5
CN(CCc1ccccc1Cl)[C@H]1CC[C@H](Nc2ncnc3sc4c(c23)CCC4)CC1 [Compound I-112, 1-N-[2-(2-chlorophenyl)ethyl]-1-N-methyl-4-N-[7-thia-9,11-diazatricyclo[6.4.0.0^[2,6]]dodeca-1(12),2(6),8,10-tetraen-12-yl]cyclohexane-1,4-diamine] | < 5
